One may read the pIC50 as −log10 of the IC50, conventionally taken in molar units. The low end stands for a large IC50, the high end for a small IC50.

Here are results for 17 compounds from patent US8404680B2, “N-[3-(5-amino-3,3a,7,7a-tetrahydro-1H-2,4-dioxa-6-aza-inden-7-yl)-phenyl]-amides as BACE1 and/or BACE2 inhibitors” (Hoffmann-La Roche Inc., priority 2011, dated 2013).

The target of one assay is T1, BACE1 (Homo sapiens, UniProt P56817).
T1 construct: Human HEK293 cells which are stably transfected with a vector expressing a cDNA of the human APP wt gene (APP695); endogenous in cells; host or cells: HEK293 (human), stably transfected with human APP695 wt
T1 sequence (P56817 46-501): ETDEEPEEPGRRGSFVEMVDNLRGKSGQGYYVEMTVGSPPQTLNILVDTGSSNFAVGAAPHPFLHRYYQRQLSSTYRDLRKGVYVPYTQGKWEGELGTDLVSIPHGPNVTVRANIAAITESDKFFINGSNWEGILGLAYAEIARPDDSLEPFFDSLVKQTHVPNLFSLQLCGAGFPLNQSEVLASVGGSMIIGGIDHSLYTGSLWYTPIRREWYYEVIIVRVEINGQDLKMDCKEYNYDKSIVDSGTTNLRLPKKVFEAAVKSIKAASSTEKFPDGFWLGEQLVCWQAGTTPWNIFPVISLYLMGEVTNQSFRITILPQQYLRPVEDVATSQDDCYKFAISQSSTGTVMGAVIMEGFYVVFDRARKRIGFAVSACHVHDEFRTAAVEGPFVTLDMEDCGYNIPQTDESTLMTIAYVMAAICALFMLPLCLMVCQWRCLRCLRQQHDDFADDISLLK
Briefly: Cellular Aβ-lowering assay. The settings on record: human HEK293 cells stably expressing human APP wt (APP695); Aβ40 in supernatant by ELISA after 18-20 hrs. The assay is classed as cell-based. How it is done:
Cellular Aβ-Lowering Assay:
Human HEK293 cells which are stably transfected with a vector expressing a cDNA of the human APP wt gene (APP695) were used to assess the potency of the compounds in a cellular assay. The cells were seeded in 96-well microtiter plates in cell culture medium (Iscove, plus 10% (v/v) fetal bovine serum, glutamine, penicillin/streptomycin) to about 80% confluence and the compounds were added at a 10× concentration in 1/10 volume of medium without FCS containing 8% DMSO (final concentration of DMSO was kept at 0.8% v/v). After 18-20 hrs incubation at 37° C. and 5% CO2 in a humidified incubator the culture supernatant was harvested for the determination of Aβ40 concentrations. 96well ELISA plates (e.g., Nunc MaxiSorb) were coated with monoclonal antibody which specifically recognize the C-terminal end of Aβ40 (Brockhaus et al., NeuroReport 9, 1481-1486; 1998). After blocking of non-specific binding sites with e.g. 1% BSA and washing, the culture supernatants were added in suitable dilutions together with a horseradish peroxidase-coupled Aβ detection antibody (e.g., antibody 4G8, Senetek, Md. Heights, Mo.) and incubated for 5 to 7 hrs. Subsequently the wells of the microtiter plate were washed extensively with Tris-buffered saline containing 0.05% Tween 20 and the assay was developed with tetramethylbenzidine/H2O2 in citric acid buffer. After stopping the reaction with one volume 1 NH2SO4 the reaction was measured in an ELISA reader at 450 nm wavelength. The concentrations of Aβ in the culture supernatants were calculated from a standard curve obtained with known amounts of pure Aβ peptide.
A general note: In an ELISA, binding on a coated surface is turned into a signal by an enzyme label.

The target of another assay is T2, BACE2 (Rattus norvegicus, UniProt Q6IE75).
T2 construct: endogenous cellular BACE2 in the Ins1e rat cell line; endogenous in cells; host or cells: INS-TMEM27 (INS1e-derived rat cell line, TetOn-inducible full-length hTMEM27)
T2 sequence (Q6IE75 63-514): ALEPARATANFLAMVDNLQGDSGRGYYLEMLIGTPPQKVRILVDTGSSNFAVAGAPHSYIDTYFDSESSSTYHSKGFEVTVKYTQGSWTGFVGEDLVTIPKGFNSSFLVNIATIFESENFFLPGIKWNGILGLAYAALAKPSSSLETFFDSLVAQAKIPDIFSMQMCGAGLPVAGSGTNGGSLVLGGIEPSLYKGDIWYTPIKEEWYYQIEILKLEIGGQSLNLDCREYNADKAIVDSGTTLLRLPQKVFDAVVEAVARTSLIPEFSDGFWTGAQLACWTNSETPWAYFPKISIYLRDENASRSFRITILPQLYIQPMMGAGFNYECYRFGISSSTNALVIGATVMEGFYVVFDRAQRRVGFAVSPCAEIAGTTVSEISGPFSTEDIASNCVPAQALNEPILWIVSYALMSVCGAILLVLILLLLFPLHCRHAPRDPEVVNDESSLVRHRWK
Briefly: Assay for BACE inhibition by measuring cellular TMEM27 cleavage. To be noted: INS-TMEM27 (INS1e-derived rat cell line, inducible hTMEM27); shed TMEM27 in medium by ELISA. The assay is classed as cell-based. The source says:
Assay for BACE Inhibition by Measuring Cellular TMEM27 Cleavage:
The assay uses the principle of inhibition of human TMEM27 cleavage by endogenous cellular BACE2 in the Ins1e rat cell line and shedding from the cell surface into the culture medium, followed by detection in an ELISA assay Inhibition of BACE2 prevents the cleavage and shedding in a dose-dependent manner.
The stable cell line “INS-TMEM27” represents an INS1e-derived cell line with inducible expression (using the TetOn system) of full-length hTMEM27 in a doxycycline-dependent manner. The cells are cultured throughout the experiment in RPMI1640+ Glutamax (Invitrogen) Penicillin/Streptomycin, 10% Fetal bovine serum, […], […], 100 micrograms/ml G418 and 100 microgram/ml hygromycin and are grown inadherent culture at 37° C. in a standard CO2 cell culture incubator.
INS-TMEM27 cells are seeded in 96-well plates. After 2 days in culture, BACE2 inhibitor is added in a range of concentrations as required by the assay and after a further two hours, doxycycline is added to a final concentration of 500 ng/ml. The cells are incubated for a further 46 hours and the supernatant harvested for detection of shed TMEM27.
An ELISA assay (using a pair of mouse anti-human-TMEM27 antibodies, raised against the extracellular domain of TMEM27) is used for detection of TMEM27 in the culture medium. An EC50 for BACE2 inhibition is calculated using the ELISA readout for each inhibitor concentration with standard curve-fitting software such as XLFit for the Excel spreadsheet program.

pIC50: −log10 of the molar value.

`C[C@]1(c2cc(NC(=O)c3ccc(Cl)cn3)ccc2F)N=C(N)O[C@]2(C(F)(F)F)COC[C@H]12` (racemic) [Example 21, N-(3-((4SR,4aSR,7aSR)-2-amino-4-methyl-7a-(trifluoromethyl)-4a,5,7,7a-tetrahydro-4H-furo[3,4-e][1,3]oxazin-4-yl)-4-fluorophenyl)-5-chloropicolinamide] showed a pIC50 on BACE1 of 7.47. `C[C@]1(c2cc(NC(=O)c3ccc(C#N)cn3)ccc2F)N=C(N)O[C@]2(C(F)(F)F)COC[C@H]12` (racemic) [Example 22, N-(3-((4SR,4aSR,7aSR)-2-amino-4-methyl-7a-(trifluoromethyl)-4a,5,7,7a-tetrahydro-4H-furo[3,4-e][1,3]oxazin-4-yl)-4-fluorophenyl)-5-cyanopicolinamide]: the pIC50 on BACE1 is 8.15.

As for `C[C@]1(c2cc(NC(=O)c3ccc(C#N)cn3)ccc2F)N=C(N)O[C@]2(C(F)(F)F)COC[C@H]12` (relative stereo) [Example 19, N-(3-(rel-(4SR,4aSR,7aSR)-2-amino-4-methyl-7a-(trifluoromethyl)-4a,5,7,7a-tetrahydro-4H-furo[3,4-e][1,3]oxazin-4-yl)-4-fluorophenyl)-5-cyanopicolinamide], the negative logarithm of the IC50 (pIC50) against BACE1 is 8.05. Still for that read-out and setting: with `CC#CCOc1cnc(C(=O)Nc2ccc(F)c([C@@]3(C)N=C(N)O[C@]4(C(F)(F)F)COC[C@H]34)c2)cn1` (relative stereo) [Example 20, N-(3-(rel-(4SR,4aSR,7aSR)-2-amino-4-methyl-7a-(trifluoromethyl)-4a,5,7,7a-tetrahydro-4H-furo[3,4-e][1,3]oxazin-4-yl)-4-fluorophenyl)-5-(but-2-ynyloxy)pyrazine-2-carboxamide] the figure was 8.15. `C[C@]1(c2cc(NC(=O)c3ccc(Cl)cn3)ccc2F)N=C(N)O[C@@H]2COC[C@@H]21` [Example 1, 5-Chloro-pyridine-2-carboxylic acid [3-((3aS,7S,7aS)-5-amino-7-methyl-3,3a,7,7a-tetrahydro-1H-2,4-dioxa-6-aza-inden-7-yl)-4-fluoro-phenyl]-amide]: the pIC50 was 7.44 at BACE2 and 9.15 at BACE1. The matching figures for `C[C@]1(c2cc(NC(=O)c3ncc(Cl)cc3Cl)ccc2F)N=C(N)O[C@@H]2COC[C@@H]21` [Example 2, 3,5-Dichloro-pyridine-2-carboxylic acid [3-((3aS,7S,7aS)-5-amino-7-methyl-3,3a,7,7a-tetrahydro-1H-2,4-dioxa-6-aza-inden-7-yl)-4-fluoro-phenyl]-amide]: 7.85 and 9.10. The matching figures for `C[C@]1(c2cc(NC(=O)c3ccc(F)cn3)ccc2F)N=C(N)O[C@@H]2COC[C@@H]21` [Example 3, 5-Fluoro-pyridine-2-carboxylic acid [3-((3aS,7S,7aS)-5-amino-7-methyl-3,3a,7,7a-tetrahydro-4H-2,4-dioxa-6-aza-inden-7-yl)-4-fluoro-phenyl]-amide]: 7.74 and 8.60. For the compound `C[C@]1(c2cc(NC(=O)c3ccc(C#N)cn3)ccc2F)N=C(N)O[C@@H]2COC[C@@H]21` [Example 4, 5-Cyano-pyridine-2-carboxylic acid [3-((3aS,7S,7aS)-5-amino-7-methyl-3,3a,7,7a-tetrahydro-4H-2,4-dioxa-6-aza-inden-7-yl)-4-fluoro-phenyl]-amide], the pIC50 at BACE2 was 7.77. Compound `CC#CCOc1cnc(C(=O)Nc2ccc(F)c([C@@]3(C)N=C(N)O[C@@H]4COC[C@@H]43)c2)cn1` [Example 7, 5-But-2-ynyloxy-pyrazine-2-carboxylic acid [3-((3aS,7S,7aS)-5-amino-7-methyl-3,3a,7,7a-tetrahydro-4H-2,4-dioxa-6-aza-inden-7-yl)-4-fluoro-phenyl]-amide] showed a pIC50 against BACE2 of 7.33. On to `C[C@]1(c2cc(NC(=O)c3ccc(OCC4CC4)cn3)ccc2F)N=C(N)O[C@@H]2COC[C@@H]21` [Example 9, 5-Cyclopropylmethoxy-pyridine-2-carboxylic acid [3-((3aS,7S,7aS)-5-amino-7-methyl-3,3a,7,7a-tetrahydro-1H-2,4-dioxa-6-aza-inden-7-yl)-4-fluoro-phenyl]-amide], for which the pIC50 against BACE1 was 8.30.

The compound `CC#CCOc1ccc(C(=O)Nc2ccc(F)c([C@@]3(C)N=C(N)O[C@@H]4COC[C@@H]43)c2)nc1` [Example 10, 5-But-2-ynyloxy-pyridine-2-carboxylic acid [3-((3aS,7S,7aS)-5-amino-7-methyl-3,3a,7,7a-tetrahydro-1H-2,4-dioxa-6-aza-inden-7-yl)-4-fluoro-phenyl]-amide] showed a pIC50 against BACE1 of 10.00. Still for that read-out and setting: then `C[C@]1(c2cc(NC(=O)c3ccc(OCC(F)(F)C(F)F)cn3)ccc2F)N=C(N)O[C@@H]2COC[C@@H]21` [Example 11, 5-(2,2,3,3-Tetrafluoro-propoxy)-pyridine-2-carboxylic acid [3-((3aS,7S,7aS)-5-amino-7-methyl-3,3a,7,7a-tetrahydro-1H-2,4-dioxa-6-aza-inden-7-yl)-4-fluoro-phenyl]-amide], with 8.30; and `C[C@]1(c2cc(NC(=O)c3ncc(C#N)cc3Cl)ccc2F)N=C(N)O[C@@H]2COC[C@@H]21` [Example 12, N-(3-((4S,4aS,7aS)-2-amino-4-methyl-4a,5,7,7a-tetrahydro-4H-furo[3,4-e][1,3]oxazin-4-yl)-4-fluorophenyl)-3-chloro-5-cyanopicolinamide], with 9.00; and `N#Cc1ccc(C(=O)Nc2ccc(F)c([C@@]3(CF)N=C(N)O[C@@H]4COC[C@@H]43)c2)nc1` [Example 13, 5-Cyano-pyridine-2-carboxylic acid [3-((3aS,7S,7aS)-5-amino-7-fluoromethyl-3,3a,7,7a-tetrahydro-1H-2,4-dioxa-6-aza-inden-7-yl)-4-fluoro-phenyl]-amide], with 9.00. The compound `NC1=N[C@](CF)(c2cc(NC(=O)c3ccc(Cl)cn3)ccc2F)[C@H]2COC[C@H]2O1` [Example 14, 5-Chloro-pyridine-2-carboxylic acid [3-((3aS,7S,7aS)-5-amino-7-fluoromethyl-3,3a,7,7a-tetrahydro-1H-2,4-dioxa-6-aza-inden-7-yl)-4-fluoro-phenyl]-amide] showed a pIC50 on BACE1 of 9.00. Regarding `NC1=N[C@](CF)(c2cc(NC(=O)c3ccc(F)cn3)ccc2F)[C@H]2COC[C@H]2O1` [Example 15, 5-Fluoro-pyridine-2-carboxylic acid [3-((3aS,7S,7aS)-5-amino-7-fluoromethyl-3,3a,7,7a-tetrahydro-1H-2,4-dioxa-6-aza-inden-7-yl)-4-fluoro-phenyl]-amide], the pIC50 against BACE1 is 8.60. Regarding `NC1=N[C@@](c2cc(NC(=O)c3ccc(Cl)cn3)ccc2F)(C(F)F)[C@H]2COC[C@H]2O1` [Example 16, 5-Chloro-pyridine-2-carboxylic acid [3-((3aS,7S,7aS)-5-amino-7-difluoromethyl-3,3a,7,7a-tetrahydro-1H-2,4-dioxa-6-aza-inden-7-yl)-4-fluoro-phenyl]-amide], at BACE1, the pIC50 was 8.26.
